In brackets after ≈: the same amount, converted by molar mass. Activity calls are given as the source filed them. No cut-off for these calls is given here.

One series deals with Aspergillus sp. Kind of series: Antifungal activity against Aspergillus sp. by broth microdilution method. The class given is functional. On the technique in general: Dilution methods test growth across graded concentrations, often in twofold steps.
The subject of series [1] is Aspergillus fumigatus. The series can be described thus: Antifungal activity against Aspergillus fumigatus at pH 7.0 by broth microdilution method. The class given is functional.
The test system of series [2] is Aspergillus fumigatus. Kind of series: Antifungal activity against Aspergillus fumigatus at pH 5.0 by broth microdilution method. The class given is functional.
Series [3] deals with Aspergillus fumigatus. The series can be described thus: Antifungal activity against flucytosine-susceptible Aspergillus fumigatus isolate AZN 58 infected in CD-1 mouse assessed as prolongation of survival at 100 mg/kg administered every 6 hrs. The class given is functional, organism-based. Further details: dose 100 mg/kg.
Series [4] deals with Aspergillus fumigatus. Kind of series: Antifungal activity against flucytosine-susceptible Aspergillus fumigatus isolate AZN 58 infected in CD-1 mouse assessed as prolongation of survival at 200 mg/kg administered every 6 hrs. The class given is functional, organism-based. Also noted: dose 200 mg/kg.
Series [5] concerns Aspergillus fumigatus. The series can be described thus: Antifungal activity against flucytosine-susceptible Aspergillus fumigatus isolate AZN 58 infected in CD-1 mouse assessed as prolongation of survival at 200 mg/kg administered every 12 hrs. The class given is functional, organism-based. Also noted: dose 200 mg/kg.
The test system of series [6] is Aspergillus fumigatus. Kind of series: Antifungal activity against flucytosine-susceptible Aspergillus fumigatus isolate AZN 58 infected in CD-1 mouse assessed as prolongation of survival at 100 mg/kg administered every 12 hrs. The class given is functional, organism-based. Further details: dose 100 mg/kg.
The nature of series [7]: Half life in CD-1 mouse at 800 mg/kg. The class given is ADME, organism-based. Also noted: dose 800 mg/kg. Conditions: in vivo.
A short description of series [8]: Half life in human. The class given is ADME, organism-based. Conditions: in vivo.
Series [9] relates to Aspergillus fumigatus. The series can be described thus: Antifungal activity against flucytosine-resistant Aspergillus fumigatus isolate AZN 58 infected in CD-1 mouse at 100 mg/kg administered every 6 hrs. The class given is functional, organism-based. Further details: dose 100 mg/kg.
In series [10] the test system is Aspergillus fumigatus. The series can be described thus: Antifungal activity against flucytosine-resistant Aspergillus fumigatus isolate AZN 58 infected in CD-1 mouse at 200 mg/kg administered every 6 hrs. The class given is functional, organism-based. Further details: dose 200 mg/kg.
Series [11] has as its system Aspergillus fumigatus. The series can be described thus: Antifungal activity against flucytosine-resistant Aspergillus fumigatus isolate AZN 58 infected in CD-1 mouse at 200 mg/kg administered every 12 hrs. The class given is functional, organism-based. Further details: dose 200 mg/kg.
The test system of series [12] is Aspergillus fumigatus. The series can be described thus: Antifungal activity against flucytosine-resistant Aspergillus fumigatus isolate AZN 58 infected in CD-1 mouse at 100 mg/kg administered every 12 hrs. The class given is functional, organism-based. Further details: dose 100 mg/kg.

The term MIC denotes the lowest concentration found to suppress growth. As a reminder, the half-life is the time in which the quantity being followed falls by half. With `Nc1nc(=O)[nH]cc1F` [FLUCYTOSINE], the minimum inhibitory concentration (MIC) against Aspergillus sp. is greater than 64 µg/mL; against Aspergillus fumigatus [1], 128 µg/mL (≈ 992 µM); against Aspergillus fumigatus [2], 0.125 µg/mL (≈ 0.968 µM). Further, the result with Aspergillus fumigatus [3], in the series on Aspergillus fumigatus [4], in the series with Aspergillus fumigatus [5] and in the series on Aspergillus fumigatus [6] was Active. For the same compound, the half-life in series [7] was 0.5 h; in series [8] it was 2.5 h. In addition, the outcome in the series on Aspergillus fumigatus [9], in the series with Aspergillus fumigatus [10], in the series on Aspergillus fumigatus [11] and with Aspergillus fumigatus [12] was inactive.

Values taken from ChEMBL document CHEMBL1275552, “In vitro activities at pH 5.0 and pH 7.0 and in vivo efficacy of flucytosine against Aspergillus fumigatus” (Antimicrob Agents Chemother, 2008).
